Common to all, as to assay type: cell-based
The target of assay [1] is Integrin alpha-V/beta-3/alpha-V/beta-5 (Homo sapiens, UniProt P05106+P06756+P18084). The assay is described as follows: Antagonist activity at integrin alphaVbeta3alphaVbeta5 (unknown origin) expressed in SKOV3 cells assessed as reduction in cell adhesion to fibrinogen after 2 hrs by MTT assay. On the technique in general: Tetrazolium assays rely on reduction of a dye to a coloured formazan, in cell work by metabolically active cells.
Chain of Integrin alpha-V/beta-3/alpha-V/beta-5 (P05106 27-788 limits assumed): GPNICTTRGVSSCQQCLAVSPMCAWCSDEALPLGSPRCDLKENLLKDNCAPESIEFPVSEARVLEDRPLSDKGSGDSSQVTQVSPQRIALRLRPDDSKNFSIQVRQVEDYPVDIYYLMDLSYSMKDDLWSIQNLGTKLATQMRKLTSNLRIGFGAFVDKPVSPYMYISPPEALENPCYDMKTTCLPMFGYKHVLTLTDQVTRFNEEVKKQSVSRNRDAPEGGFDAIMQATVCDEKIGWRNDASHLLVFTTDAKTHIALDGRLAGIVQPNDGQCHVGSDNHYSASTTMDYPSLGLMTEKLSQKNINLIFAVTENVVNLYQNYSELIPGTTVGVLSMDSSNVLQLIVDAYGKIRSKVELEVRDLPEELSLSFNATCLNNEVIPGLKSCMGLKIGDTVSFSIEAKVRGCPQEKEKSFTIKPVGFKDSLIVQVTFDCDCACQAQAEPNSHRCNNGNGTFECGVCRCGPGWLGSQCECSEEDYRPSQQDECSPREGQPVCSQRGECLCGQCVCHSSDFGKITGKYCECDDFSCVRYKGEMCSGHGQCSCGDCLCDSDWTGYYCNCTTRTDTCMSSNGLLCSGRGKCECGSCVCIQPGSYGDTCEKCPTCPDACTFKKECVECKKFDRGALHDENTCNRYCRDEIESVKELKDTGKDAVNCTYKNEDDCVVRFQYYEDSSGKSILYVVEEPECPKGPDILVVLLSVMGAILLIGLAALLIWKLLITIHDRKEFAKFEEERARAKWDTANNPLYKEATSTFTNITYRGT
Chain of Integrin alpha-V/beta-3/alpha-V/beta-5 (P06756 31-889 limits assumed): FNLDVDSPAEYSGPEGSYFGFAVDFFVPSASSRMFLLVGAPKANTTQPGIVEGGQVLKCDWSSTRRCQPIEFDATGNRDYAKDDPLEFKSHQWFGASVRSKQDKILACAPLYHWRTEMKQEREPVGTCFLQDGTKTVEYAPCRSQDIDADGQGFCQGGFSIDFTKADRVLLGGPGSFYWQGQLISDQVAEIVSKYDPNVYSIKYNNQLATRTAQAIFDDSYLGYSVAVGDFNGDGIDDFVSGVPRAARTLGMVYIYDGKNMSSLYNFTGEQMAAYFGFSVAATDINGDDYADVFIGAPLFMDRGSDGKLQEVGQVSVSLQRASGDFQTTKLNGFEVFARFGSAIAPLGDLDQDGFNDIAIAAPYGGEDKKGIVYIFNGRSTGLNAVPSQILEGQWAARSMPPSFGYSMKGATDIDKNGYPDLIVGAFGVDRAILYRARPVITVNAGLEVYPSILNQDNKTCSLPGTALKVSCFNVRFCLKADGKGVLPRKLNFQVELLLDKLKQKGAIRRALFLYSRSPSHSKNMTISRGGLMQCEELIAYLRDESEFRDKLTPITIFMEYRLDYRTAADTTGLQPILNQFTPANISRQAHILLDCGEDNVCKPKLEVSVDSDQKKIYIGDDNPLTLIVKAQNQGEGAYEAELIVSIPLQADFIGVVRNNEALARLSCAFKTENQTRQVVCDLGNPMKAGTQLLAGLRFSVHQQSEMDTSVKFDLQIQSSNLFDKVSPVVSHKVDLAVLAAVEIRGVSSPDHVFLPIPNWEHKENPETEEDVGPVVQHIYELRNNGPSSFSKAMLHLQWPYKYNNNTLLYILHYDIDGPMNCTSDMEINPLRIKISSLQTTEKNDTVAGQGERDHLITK
Chain of Integrin alpha-V/beta-3/alpha-V/beta-5 (P06756 891-1048 limits assumed): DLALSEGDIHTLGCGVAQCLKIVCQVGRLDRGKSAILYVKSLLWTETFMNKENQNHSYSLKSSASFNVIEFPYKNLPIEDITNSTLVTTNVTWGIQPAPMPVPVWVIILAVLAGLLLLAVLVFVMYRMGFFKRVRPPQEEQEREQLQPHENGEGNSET
Chain of Integrin alpha-V/beta-3/alpha-V/beta-5 (P18084 24-799 limits assumed): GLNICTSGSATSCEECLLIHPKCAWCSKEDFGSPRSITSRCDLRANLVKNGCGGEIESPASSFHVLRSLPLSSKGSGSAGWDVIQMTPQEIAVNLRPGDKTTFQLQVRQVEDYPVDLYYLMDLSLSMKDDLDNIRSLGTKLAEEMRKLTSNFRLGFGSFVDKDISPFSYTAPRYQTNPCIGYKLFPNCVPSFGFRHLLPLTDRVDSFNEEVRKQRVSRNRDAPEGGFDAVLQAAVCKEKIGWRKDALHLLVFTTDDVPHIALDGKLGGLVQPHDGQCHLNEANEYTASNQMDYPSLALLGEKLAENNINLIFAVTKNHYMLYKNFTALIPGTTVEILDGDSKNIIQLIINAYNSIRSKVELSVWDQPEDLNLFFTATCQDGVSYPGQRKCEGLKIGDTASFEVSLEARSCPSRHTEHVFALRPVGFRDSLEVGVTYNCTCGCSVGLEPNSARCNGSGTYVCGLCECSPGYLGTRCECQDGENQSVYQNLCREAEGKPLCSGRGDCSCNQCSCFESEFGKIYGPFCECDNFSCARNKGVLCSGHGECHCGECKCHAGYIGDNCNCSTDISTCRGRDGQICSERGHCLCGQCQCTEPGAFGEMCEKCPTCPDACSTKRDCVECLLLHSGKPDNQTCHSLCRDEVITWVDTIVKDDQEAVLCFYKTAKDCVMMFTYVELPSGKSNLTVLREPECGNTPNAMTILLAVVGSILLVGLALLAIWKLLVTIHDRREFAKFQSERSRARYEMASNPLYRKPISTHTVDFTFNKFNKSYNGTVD

Another assay deals with Integrin alpha-V/beta-3 (Homo sapiens, UniProt P05106+P06756). The assay is described as follows: Antagonist activity at integrin alphaVbeta3 (unknown origin) expressed in HEK293 cells assessed as reduction in cell adhesion to fibrinogen after 2 hrs by MTT assay.
Chain of Integrin alpha-V/beta-3 (P05106 27-788 limits assumed): as the sequence (P05106 27-788 limits assumed) above
Chain of Integrin alpha-V/beta-3 (P06756 31-889 limits assumed): as the sequence (P06756 31-889 limits assumed) above
Chain of Integrin alpha-V/beta-3 (P06756 891-1048 limits assumed): as the sequence (P06756 891-1048 limits assumed) above
A further assay addresses Integrin alpha-V/beta-5 (Homo sapiens, UniProt P06756+P18084). The assay is described as follows: Antagonist activity at integrin alphaVbeta5 (unknown origin) expressed in HT-29 cells assessed as reduction in cell adhesion to vitronectin after 2 hrs by MTT assay.
The species entered for assay [2] is Homo sapiens. The experiment in a line: Selectivity ratio of IC50 for integrin alphaVbeta5 (unknown origin) expressed in HT-29 cells to IC50 for integrin alphaVbeta3alphaVbeta5 (unknown origin) expressed in SKOV3 cells.
For assay [3], the species on record is Homo sapiens. The experiment in a line: Selectivity ratio of IC50 for integrin alphaVbeta5 (unknown origin) expressed in HT-29 cells to IC50 for integrin alphaVbeta3 (unknown origin) expressed in HEK293 cells.

Numbered stars: 1 amine (or outer) side, 2 acyl side, 3 side chain; on linkers, the order of the positions; unused ones are H or OH. Square brackets hold non-standard residues; d marks the D form. Peptide text beside a SMILES is read from it. X1 = C[C@@H](O)[C@H](N[*:1])C(=O)NC(=O)[*:2]

As usually defined, the IC50 is the concentration that inhibits the measured activity by half.

Chain of Integrin alpha-V/beta-5 (P06756 31-889 limits assumed): as the sequence (P06756 31-889 limits assumed) above
Chain of Integrin alpha-V/beta-5 (P06756 891-1048 limits assumed): as the sequence (P06756 891-1048 limits assumed) above
Chain of Integrin alpha-V/beta-5 (P18084 24-799 limits assumed): as the sequence (P18084 24-799 limits assumed) above

With `CC(C)C[C@@H]1NC(=O)[C@H](CC(=O)O)NC(=O)CNC(=O)[C@H](CCCNC(=N)N)NC(=O)[C@H](CC(=O)O)NC(=O)CNC(=O)[C@H](CCCNC(=N)N)NC(=O)[C@H](CC(=O)O)NC(=O)CNC(=O)[C@H](CCCNC(=N)N)NC(=O)CNC(=O)[C@H]([C@@H](C)O)NC(=O)[C@H](CCC(=O)O)NC(=O)[C@@H]2CCCN2C1=O` (cyclo(RGDLPETGRGDRGD)), the values for the IC50 (in assay [1]; on Integrin alpha-V/beta-3; at Integrin alpha-V/beta-5) were 136 µM, 257 µM and 380 µM, respectively.

As for H-RGDRGD-OH, the values for the IC50 (in assay [1]; at Integrin alpha-V/beta-3; at Integrin alpha-V/beta-5) were 753 µM, 619 µM and 546 µM, respectively.

Consider `CC(C)C[C@@H]1NC(=O)[C@H](CC(=O)O)NC(=O)CNC(=O)[C@H](CCCNC(=N)N)NC(=O)[C@H](CC(=O)O)NC(=O)CNC(=O)[C@H](CCCNC(=N)N)NC(=O)CNC(=O)CNC(=O)CNC(=O)CNC(=O)[C@H]([C@@H](C)O)NC(=O)[C@H](CCC(=O)O)NC(=O)[C@@H]2CCCN2C1=O` (cyclo(RGDLPETGGGGRGD)), for which the half-maximal inhibitory concentration (IC50) is 26 µM in assay [1], 48.8 µM at Integrin alpha-V/beta-3 and 26 µM at Integrin alpha-V/beta-5.

As for `CC(C)C[C@@H]1NC(=O)[C@H](CC(=O)O)NC(=O)CNC(=O)[C@H](CCCNC(=N)N)NC(=O)CNC(=O)CNC(=O)CNC(=O)CNC(=O)CNC(=O)CNC(=O)CNC(=O)NC(=O)[C@H]([C@@H](C)O)NC(=O)[C@H](CCC(=O)O)NC(=O)[C@@H]2CCCN2C1=O` (cyclo(RGDLPE[X1]GGGGGGG)), the IC50 in assay [1] came out at 19 µM; on Integrin alpha-V/beta-3 it was 7.2 µM; on Integrin alpha-V/beta-5 it was 522 µM.

For the molecule H-GGGGGGGRGDLPETGGS-OH, the IC50 in assay [1] is 102 µM; at Integrin alpha-V/beta-3 it was 171 µM; at Integrin alpha-V/beta-5, 2950 µM.

As for H-GRGDRGDRGDLPETGGS-OH, the IC50 in assay [1] was determined as 74 µM; on Integrin alpha-V/beta-3, 152 µM; on Integrin alpha-V/beta-5, 25 µM.

Consider H-GGGGRGDRGDLPETGGS-OH, for which the values for the IC50 (in assay [1]; at Integrin alpha-V/beta-3; at Integrin alpha-V/beta-5) were 4 µM, 33 µM and 1730 µM, respectively. In addition, the Ratio IC50 was above 400 in the assay listed under Homo sapiens [2] and above 50 in the assay listed under Homo sapiens [3].
